Experiments:
Assay type in all cases: cell-based
[1] = system: KB nasopharyngeal carcinoma cell line; assay: In vitro cytotoxicity, methylene blue assay / cell count: KB; conditions: three generations, mean ± standard deviation of five experiments, read-out: ID50 (the source's name)
[2] = system: DU-145 prostate carcinoma line; assay: In vitro cytotoxicity, methylene blue assay / cell count: DU-145; conditions: three generations, mean ± standard deviation of five experiments, read-out: ID50 (the source's name)
[3] = system: PC-3 prostate carcinoma line; assay: In vitro cytotoxicity, methylene blue assay / cell count: PC-3; conditions: three generations, mean ± standard deviation of five experiments, read-out: ID50 (the source's name)
HepG2 cells = assay: In vitro cytotoxicity, methylene blue assay / cell count: HepG2; conditions: three generations, mean ± standard deviation of five experiments, read-out: ID50 (the source's name)
2.2.15 line = assay: In vitro cytotoxicity, methylene blue assay / cell count: 2.2.15; conditions: three generations, mean ± standard deviation of five experiments, read-out: ID50 (the source's name)
Experimental: Cells in logarithmic growth were plated at a density of 5000 cells/mL/well in 24-well plates. Drugs were added to the cells at different dosages and cultures were maintained for a period of three generations. At the end of this time, methylene blue assays were performed and/or cell numbers were directly counted. […] IC50 values were determined by interpolation of the plotted data. Each value shown is the mean± standard deviation of five experiments with each data point done in duplicate.
HepG2 cells originate from hepatocellular carcinoma and the 2.2.15 line is derived from HepG2 cells which were transfected with a copy of the hepatitis B virus genome.

CEM cells = assay: In vitro cytotoxicity, methylene blue assay / cell count: CEM; conditions: three generations, mean ± standard deviation of five experiments, read-out: ID50 (the source's name)
tumor cell lines tested = assay: In vitro cytotoxicity, statement on all tumor cell lines tested; conditions: all of the tumor cell lines tested

Question: What does the source list for `O=c1ccn(C2COC(CO)O2)c(=O)[nH]1` (single isomer, unassigned; (-)) [(−)-OddU]?
Answer: IC50 [1]: > 30 µM; IC50 [2]: > 30 µM; IC50 [3]: > 30 µM; IC50 (HepG2 cells): > 30 µM; IC50 (2.2.15 line): > 30 µM; IC50 (CEM cells): > 30 µM; Cytotoxicity in words (tumor cell lines tested): not toxic

— US6436948B1, “Method for the treatment of psoriasis and genital warts” (priority 1995, dated 2002)
